Read-outs that look alike come from different tables or passages of the source. Square brackets hold non-standard residues; d marks the D form. Peptide text beside a SMILES is read from it. * marks the point of attachment. C20 diacid = O=C(O)CCCCCCCCCCCCCCCCCCC(=O)*; C18 diacid = O=C(O)CCCCCCCCCCCCCCCCC(=O)*; AEEA = NCCOCCOCC(=O)O; Inp = O=C(O)C1CCNCC1
How the values were obtained:
[1] = Heat accelerated stability assay of polypeptide solutions (40° C., pH about 7.4), reversed phase chromatography; type: physicochemical; conditions: 40° C.; for Concentration change on 7 d / Concentration change on 26 d: pH about 7.4, 1 mg/mL; for Concentration change on 7 d / Purity change on 7 d: Day 7; for Concentration change on 26 d / Purity change on 26 d: Day 26; for Purity change on 7 d / Purity change on 26 d: reversed phase chromatography 214 nm; for Purity change on 7 d: purity on 7 d − purity on 0 d; for Purity change on 26 d: purity on 26 d − purity on 0 d
Procedure, shortened: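 Polypeptide derivative lyophilisate (1 mg/mL) with sodium dihydrogen phosphate (1.42 mg/mL) in water, pH about 7.4, sterile-filtered, vialed and held at 40° C; sampled on days 7 and 26. After centrifugation, concentration and purity (target/total peak area) by C18 RP-HPLC, TFA/ACN gradient, 280 and 214 nm.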

[2] = molecular target: T1, calcitonin receptor (hCTR) (Homo sapiens, UniProt P30988); assay: Calcitonin receptor agonism, CRE-luciferase assay in stably transfected CHO-K1/CALCR/Ga15 cells; type: cell-based; conditions: for Fold change in activity against hCTR: relative to D1 as benchmark
T1 construct: host or cells: CHO-K1/CALCR/Ga15 cells, further stably transfected with a CRE-luciferase plasmid
T1 sequence (P30988 25-474): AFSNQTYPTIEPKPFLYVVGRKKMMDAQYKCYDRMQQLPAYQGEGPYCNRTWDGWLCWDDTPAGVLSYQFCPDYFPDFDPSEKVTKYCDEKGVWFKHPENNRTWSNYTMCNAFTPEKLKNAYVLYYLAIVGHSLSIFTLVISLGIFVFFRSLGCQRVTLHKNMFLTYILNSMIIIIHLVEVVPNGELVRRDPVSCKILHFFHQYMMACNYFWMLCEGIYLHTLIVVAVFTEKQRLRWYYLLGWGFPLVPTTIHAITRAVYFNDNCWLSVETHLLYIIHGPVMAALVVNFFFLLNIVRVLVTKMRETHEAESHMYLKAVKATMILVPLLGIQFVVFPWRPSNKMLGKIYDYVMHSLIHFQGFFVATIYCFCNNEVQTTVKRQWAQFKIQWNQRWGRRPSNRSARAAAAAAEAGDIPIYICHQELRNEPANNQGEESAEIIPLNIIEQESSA

amylin receptor (hAMY3R) = molecular target: T2, amylin receptor (hAMY3R) (Homo sapiens, UniProt O60896+P30988); assay: Amylin receptor agonism testing, CRE-luciferase assay in stably transfected CHO-K1/Ga15/AMY3 cells; type: cell-based; conditions: for Fold change in activity against hAMY3R: relative to D1 as benchmark; for increase in the ratio of activity against the amylin receptor to agonistic activity against the calcitonin receptor: relative to the benchmark D1; for EC50: incubation of 24 hours, Table 3, read-out: EC50, activity against the amylin receptor in cells
T2 construct: host or cells: CHO-K1/Ga15/AMY3 cells, further stably transfected with a CRE-luciferase plasmid
T2 sequence (P30988 25-474): T1 sequence (P30988 25-474)
T2 sequence (O60896 24-148): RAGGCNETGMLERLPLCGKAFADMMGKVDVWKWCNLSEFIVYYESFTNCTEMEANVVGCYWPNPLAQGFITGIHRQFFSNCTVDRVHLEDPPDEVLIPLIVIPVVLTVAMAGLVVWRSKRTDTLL
Excerpt: The objective of this assay is to test the potency of the polypeptide derivatives in the present application on amylin and calcitonin receptors in vitro using a luciferase assay.
Using the standard protocol for construction of an amylin receptor/CRE-luc cell line, CHO-K1/Ga15/AMY3 cells (purchased from GenScript, with the calcitonin receptor and the receptor activity modifying peptide (RAMP) constructed already) were transfected with a plasmid containing a luciferase expression cassette driven by multiple copies of cAMP response elements (CREs). The cells were cultured in an F12 medium containing 200 ug/mL Zeocin, 2 ug/mL puromycin, 100 ug/mL hygromycin, and 400 ug/mL G418 to afford a stably transfected amylin receptor/CRE-luc cell line.
To each well of a white 96-well plate was added 50 μL of the tested sample solution at a respective concentration.
The stably transfected amylin receptor/CRE-luc CHO cells were resuspended in the growth medium at a certain density, and 50 μL of the cell suspension was added at a density of about 20,000 cells per well to the white 96-well plate containing the tested sample solution. After incubation of 24 hours at 37° C. and 5% CO2, 100 μL of a Luciferase substrate was added to each well, incubated for 3 minutes, and finally was tested for luminescence on SpectraMax L (Molecular Devices) with the software SoftMax Pro 7.0.3 GxP. A standard curve was plotted using the fluorescent intensities for calculation of EC50.

[3] = Animal study: weight change and accumulated food intake in SD rats after subcutaneous dosing; type: in vivo, SD (Sprague Dawley) rats; conditions: 10 nmol/kg subcutaneous
Excerpt: SD (Sprague Dawley) rats weighing 200-250 g were used for this study. The rats were received at least 10-14 days before the study began such that they could accommodate to the experimental environment. After arrival, they were exposed to a reversed light/dark cycle (i.e., lights switched off in daytime and on in nighttime) for two weeks and were individually housed for the first week so as to ensure high data accuracy and test sensitivity. Throughout the acclimation and experiment period, the rats had free access to food and water. 5-8 rats were assigned to each testing group for the derivatives and were subcutaneously administered the derivatives at a dose of 10 nmol/kg or a vehicle (20 mM phosphate buffer, PB, pH 7.0), and the dosing timepoint was recorded for each group. After dosing, the rats were put back into cages where they were housed and could have access to food and water. Food consumption and weight change of the rats were recorded online or manually every 24 hours. Percent of weight change=(BWTn−BWT0)/BWT0*100%, wherein BW represented the value of body weight, and T0 and Tn represented the time point of dosing and n hours post dose respectively. Dots in the figures were represented utilizing mean±standard error of the mean (SEM).

[4] = incubation of 24 hours, Table 4, read-out: EC50, activity against the calcitonin receptor in cells

Compound | Concentration change on 7 d [1] | Concentration change on 26 d [1] | Purity change on 7 d [1] | Purity change on 26 d [1] | EC50 [2, 4] | Fold change in activity against hCTR [2] | Fold change in activity against hAMY3R (amylin receptor (hAMY3R)) | increase in the ratio of activity against the amylin receptor to agonistic activity against the calcitonin receptor (amylin receptor (hAMY3R)) | effect on body weight of SD rats ([3]; FIGS. 1 and 3) | effect on accumulated food intake of SD rats ([3]; FIGS. 2 and 4) | EC50 (amylin receptor (hAMY3R)) | EC50 ([2]; Table 5 integrated analysis, read-out: hCTR EC50) | increase in agonistic activity against the amylin receptor (amylin receptor (hAMY3R); compared with M17)
CC(C)C[C@H](NC(=O)[C@H](CCCNC(=N)N)NC(=O)CNC(=O)[C@H](CC(C)C)NC(=O)[C@@H](NC(=O)[C@H](C)NC(=O)[C@@H](NC(=O)[C@H](CO)NC(=O)[C@H](CC(C)C)NC(=O)[C@H](CCC(N)=O)NC(=O)[C@H](CO)NC(=O)[C@H](C)NC(=O)C1CCN(C(=O)CCCCCCCCCCCCCCCCC(=O)O)CC1)[C@@H](C)O)C(C)C)C(=O)N[C@@H](CO)C(=O)N[C@@H](CC(=O)O)C(=O)N[C@@H](CCC(=O)O)C(=O)N[C@@H](CC(C)C)C(=O)N[C@@H](Cc1c[nH]cn1)C(=O)N[C@@H](CCCNC(=N)N)C(=O)N[C@@H](CC(C)C)C(=O)N[C@@H](CCC(N)=O)C(=O)N[C@@H](CC(=O)O)C(=O)N[C@@H](Cc1ccc(O)cc1)C(=O)N1CCC[C@H]1C(=O)N[C@@H](CCCNC(=N)N)C(=O)N[C@H](C(=O)N[C@@H](CC(=O)O)C(=O)N[C@H](C(=O)NCC(=O)N[C@@H](CO)C(=O)NCC(=O)N[C@@H](CO)C(=O)N1CCC[C@H]1C(N)=O)C(C)C)[C@@H](C)O [M17] ({C18 diacid-Inp}-ASQLSTAVLGRLSDELHRLQDYPRTDVGSGSP-NH2) | −1.927% | −5.985% | −1% | −3.9% | 0.259 nM | 0.332 | 0.571 | 1.7 fold | – | – | – | – | –
CC(C)C[C@H](NC(=O)[C@H](CCCNC(=N)N)NC(=O)CNC(=O)[C@H](CC(C)C)NC(=O)[C@@H](NC(=O)[C@H](C)NC(=O)[C@@H](NC(=O)[C@H](CO)NC(=O)[C@H](CC(C)C)NC(=O)[C@H](CCC(N)=O)NC(=O)[C@H](CO)NC(=O)[C@H](C)NC(=O)COCCOCCNC(=O)COCCOCCNC(=O)[C@H](CCC(=O)O)NC(=O)CCCCCCCCCCCCCCCCCCC(=O)O)[C@@H](C)O)C(C)C)C(=O)N[C@@H](CO)C(=O)N[C@@H](CC(=O)O)C(=O)N[C@@H](CCC(=O)O)C(=O)N[C@@H](CC(C)C)C(=O)N[C@@H](Cc1c[nH]cn1)C(=O)N[C@@H](CCCNC(=N)N)C(=O)N[C@@H](CC(C)C)C(=O)N[C@@H](CCC(N)=O)C(=O)N[C@@H](CC(=O)O)C(=O)N[C@@H](Cc1ccc(O)cc1)C(=O)N1CCC[C@H]1C(=O)N[C@@H](CCCNC(=N)N)C(=O)N[C@H](C(=O)N[C@@H](CC(=O)O)C(=O)N[C@H](C(=O)NCC(=O)N[C@@H](CO)C(=O)NCC(=O)N[C@@H](CO)C(=O)N1CCC[C@H]1C(N)=O)C(C)C)[C@@H](C)O [M23] ({C20 diacid}-E[AEEA][AEEA]ASQLSTAVLGRLSDELHRLQDYPRTDVGSGSP-NH2) | – | −7.782% | No change | nearly no noticeable change in purity | – | – | – | – | apparently further reduced | apparently further reduced | 0.017 nM | – | –
CC(C)C[C@H](NC(=O)[C@H](CCCNC(=N)N)NC(=O)CNC(=O)[C@H](CC(C)C)NC(=O)[C@@H](NC(=O)[C@H](C)NC(=O)[C@@H](NC(=O)[C@H](CO)NC(=O)[C@H](CC(C)C)NC(=O)[C@H](CCC(N)=O)NC(=O)[C@H](CO)NC(=O)[C@H](C)NC(=O)COCCOCCNC(=O)COCCOCCNC(=O)[C@H](CCC(=O)O)NC(=O)CCCCCCCCCCCCCCCCC(=O)O)[C@@H](C)O)C(C)C)C(=O)N[C@@H](CO)C(=O)N[C@@H](CC(=O)O)C(=O)N[C@@H](CCC(=O)O)C(=O)N[C@@H](CC(C)C)C(=O)N[C@@H](Cc1c[nH]cn1)C(=O)N[C@@H](CCCNC(=N)N)C(=O)N[C@@H](CC(C)C)C(=O)N[C@@H](CCC(N)=O)C(=O)N[C@@H](CC(=O)O)C(=O)N[C@@H](Cc1ccc(O)cc1)C(=O)N1CCC[C@H]1C(=O)N[C@@H](CCCNC(=N)N)C(=O)N[C@H](C(=O)N[C@@H](CC(=O)O)C(=O)N[C@H](C(=O)NCC(=O)N[C@@H](CO)C(=O)NCC(=O)N[C@@H](CO)C(=O)N1CCC[C@H]1C(N)=O)C(C)C)[C@@H](C)O [M24] ({C18 diacid}-E[AEEA][AEEA]ASQLSTAVLGRLSDELHRLQDYPRTDVGSGSP-NH2) | – | −3.954% | −1.59% | −7.24% | 0.081 nM | 1.061 | 5.143 | – | – | – | 0.007 nM | – | –
CC(C)C[C@H](NC(=O)[C@H](CCCNC(=N)N)NC(=O)CNC(=O)[C@H](CC(C)C)NC(=O)[C@@H](NC(=O)[C@H](C)NC(=O)[C@@H](NC(=O)[C@H](CO)NC(=O)[C@H](CC(C)C)NC(=O)[C@H](CCC(N)=O)NC(=O)[C@H](CO)NC(=O)[C@H](C)NC(=O)COCCOCCNC(=O)COCCOCCNC(=O)[C@H](CC(=O)O)NC(=O)CCCCCCCCCCCCCCCCC(=O)O)[C@@H](C)O)C(C)C)C(=O)N[C@@H](CO)C(=O)N[C@@H](CC(=O)O)C(=O)N[C@@H](CCC(=O)O)C(=O)N[C@@H](CC(C)C)C(=O)N[C@@H](Cc1c[nH]cn1)C(=O)N[C@@H](CCCNC(=N)N)C(=O)N[C@@H](CC(C)C)C(=O)N[C@@H](CCC(N)=O)C(=O)N[C@@H](CC(=O)O)C(=O)N[C@@H](Cc1ccc(O)cc1)C(=O)N1CCC[C@H]1C(=O)N[C@@H](CCCNC(=N)N)C(=O)N[C@H](C(=O)N[C@@H](CC(=O)O)C(=O)N[C@H](C(=O)NCC(=O)N[C@@H](CO)C(=O)NCC(=O)N[C@@H](CO)C(=O)N1CCC[C@H]1C(N)=O)C(C)C)[C@@H](C)O [M26] ({C18 diacid}-D[AEEA][AEEA]ASQLSTAVLGRLSDELHRLQDYPRTDVGSGSP-NH2) | −2.402% | −2.235% | −2.39% | −2.68% | 0.024 nM | – | – | – | – | – | 0.008 nM | – | –
CC(C)C[C@H](NC(=O)[C@H](CCCNC(=N)N)NC(=O)CNC(=O)[C@H](CC(C)C)NC(=O)[C@@H](NC(=O)[C@H](C)NC(=O)[C@@H](NC(=O)[C@H](CO)NC(=O)[C@H](CC(C)C)NC(=O)[C@H](CCC(N)=O)NC(=O)[C@H](CO)NC(=O)[C@H](C)NC(=O)COCCOCCNC(=O)COCCOCCNC(=O)C1CCN(C(=O)CCCCCCCCCCCCCCCCC(=O)O)CC1)[C@@H](C)O)C(C)C)C(=O)N[C@@H](CO)C(=O)N[C@@H](CC(=O)O)C(=O)N[C@@H](CCC(=O)O)C(=O)N[C@@H](CC(C)C)C(=O)N[C@@H](Cc1c[nH]cn1)C(=O)N[C@@H](CCCNC(=N)N)C(=O)N[C@@H](CC(C)C)C(=O)N[C@@H](CCC(N)=O)C(=O)N[C@@H](CC(=O)O)C(=O)N[C@@H](Cc1ccc(O)cc1)C(=O)N1CCC[C@H]1C(=O)N[C@@H](CCCNC(=N)N)C(=O)N[C@H](C(=O)N[C@@H](CC(=O)O)C(=O)N[C@H](C(=O)NCC(=O)N[C@@H](CO)C(=O)NCC(=O)N[C@@H](CO)C(=O)N1CCC[C@H]1C(N)=O)C(C)C)[C@@H](C)O [M30] ({C18 diacid-Inp-AEEA-AEEA}-ASQLSTAVLGRLSDELHRLQDYPRTDVGSGSP-NH2) | – | −5.268% | No change | −4.34% | – | 0.848 | 36.000 | about 42.5 fold | – | – | 0.001 nM | 0.101 nM | ~70 folds

From patent US20260265305A1, “POLYPEPTIDE DERIVATIVE FOR ORAL DELIVERY” (Hangzhou Sciwind Biosciences Co., Ltd., priority 2023, published 2026)
